Experimental data from patent publication US20090221690A1, “Pharmaceutical Composition for the Prevention/Treatment of Bone Disorders and a Process for the Preparation Thereof” (COUNCIL OF SCIENTIFIC AND INDUSTRIAL RESEARCH, priority 2006, published 2009).

Legend:
[1] = tested on: bilaterally ovariectomized immature rats; test: Estrogen agonistic activity (uterine weight gain); format: in vivo, rat; conditions: 0.01 mg/kg/d, oral, 3 days
Procedure: The test agents were administered once daily for 3 consecutive days by the oral route and uterine weight gain over the corresponding vehicle control group was determined. 17α-Ethynylestradiol was used as reference standard.

primary osteoblasts = test: MTT assay for cell proliferation, primary osteoblast cell culture; format: cell-based, Balb/c mouse; conditions: 24 h; for Osteoblast cell proliferation (MTT assay): Vehicle 0.60 ± 0.06, Mean±SEM
Procedure: (§1) Neonatal mouse calvarial cell cultures are prepared as described previously (Endocrinology 139:4743) using slight modification. Briefly, for primary osteoblast cell cultures, frontal and parietal bones from Balb/c mouse neonates (1-3 day old) are digested in 0.1% collagenase/0.1% dispase in α-MEM to obtain 5 sequential digests. The second through fifth digests are combined and grown to confluence at 37° C. and 5% CO2 in air in α-MEM, supplemented with 10% fetal bovine serum (FBS), 2 mM glutamine, 100 U/ml penicillin-streptomycin, Non-essential amino acid solution and sodium pyruvate. The effect of test agents is analysed using the following tests:
MTT assay is a common assay used for assessing cell proliferation where tetrazolium salt is reduced to formazone crystals by the mitochondrial dehydrogenase enzyme, which are then dissolved in DMSO. More the number of metabolically active cells more will be the formazone crystals formed. Briefly, osteoblast cells are maintained in α-MEM medium supplemented with 10% FCS and 1% antibiotic solution in 96 well plate. When the cells attain 40% confluency, they are treated in presence or absence of test agents in 2% FCS supplemented media for 24 h. Twenty-four hours thereafter, MTT salt is added to the cells. After 4 h, the formazone crystals formed are dissolved in DMSO and readings taken at wavelength of 570 nm.
This assay is based on the ability of viable cells to reduce tetrazolium salt to form formazone crystals by mitochondrial dehydrogenase enzyme. In MTT assay, osteoblasts are maintained in α-MEM medium supplemented with 10% FCS and 1% antibiotic solution in 96 well plate. When the cells attain 40% confluency, they are treated in presence or absence of test agents in 2% FCS supplemented media for 24 h. Twenty-four hours thereafter, MTT salt is added to the cells. After 4 h, the formazone crystals formed due to reduction of tetrazolium salt by mitochondrial dehydrogenase enzyme are dissolved in DMSO and readings taken at wavelength of 570 nm. All the five pure compounds nos.

[2] = tested on: osteoblasts cultured on sterile bovine bone slices; test: Mineralisation by osteoblasts cultured on bovine bone slices, Alizarin red staining; format: cell-based, Balb/c mouse; conditions: 15 days, FIGS. 14 and 15
Procedure: as §1
(§2) Cells are seeded onto sterile bovine bone slices in 96-well plate and treated with the culture medium containing α-MEM, supplemented with 10% fetal bovine serum, 2 mM glutamine, 100 U/ml penicillin-streptomycin, non-essential amino acid solution, sodium pyruvate, 10 mM P-glycerophosphate and 50 μg/ml ascorbic acid. Culture medium is changed every alternate day. At termination of the culture, cells are washed twice with PBS, fixed in cold 70% ethanol for 1 h and washed once with water and stained with 40 mM Alizarin red (pH 4.7) for 30 min and then washed in PBS to remove excess staining.
as §2, with “In case of osteoblasts” for “Cells are”, “slices, the cells are cultured” for “slices”, “in A-MEM” for “and treated with the culture medium containing α-MEM,”, “p-glycerophosphate” for “P-glycerophosphate”, “acid in the absence or presence of test compounds or their mixtures.” for “acid.”, “culture after 15 days,” for “culture,”

osteoblasts [3] = test: Quantification of alkaline phosphatase activity in osteoblasts; format: cell-based, Balb/c mouse; parameters: alkaline phosphatase activity: unit not given here; conditions: 48 h; for alkaline phosphatase activity: Control 1.87 ± 0.20, Mean±SEM
Procedure: as §1
p-Nitrophenol phosphate is a colorless substrate which is hydrolysed to colored p-nitrophenol by alkaline phosphatase enzyme. Rate of hydrolysis of p-nitrophenol phosphate is proportional to enzyme present in sample. […] Findings reveal that all the five pure compounds nos.

osteoblast cells = test: Quantification of mineralization in osteoblasts (Alizarin red, acetic acid extraction); format: cell-based, Balb/c mouse; conditions: osteoblasts cultured 7 days; vs vehicle control; FIG. 13
Procedure: as §1
For quantification of mineralization which is measured with increased deposition of nascent calcium in osteoblast cells, cells were cultured in the presence of test compounds for 7 days and stained with Alizarin red. Alizarin red was extracted with acetic acid and the intensity of stain, which is directly proportion to the extent of mineralisation, is read at 405 nm.

osteoblasts [4] = test: Osteogenic activity of isolated compounds based on alkaline phosphatase expression, MTT and mineralisation in vitro; format: cell-based
Excerpt: K051, K052, K054, K080, K082 (isolated from n-butanol soluble fraction) and K095 (isolated from chloroform soluble fraction) (FIGS. 11-15; Tables 10-11).

[5] = tested on: Cladosporium cladosporioides; conditions: Bandara et al. 1989/1990; cited from earlier work
[6] = tested on: Ishikawa (human uterine glandular epithelial carcinoma) cell line; test: MTT proliferation assay in Ishikawa cell line; format: cell-based; conditions: 10 nM and 1 μM; Ishikawa cells; FIG. 2
[7] = tested on: MCF-7 (human cancer breast) cell line; test: MTT proliferation assay in MCF-7 cell line; format: cell-based; conditions: 10 nM and 1 μM; MCF-7 cells; FIG. 2
[8] = tested on: PTH-induced resorption of ^45Ca from chick fetal bones in culture; test: Chick fetal bone culture assay, bone antiresorbing activity; format: cell-based; conditions: 100 μM; vehicle 1.03; T/C close to unity = no antiresorbing activity
Procedure: A slight modification of the method of Raisz (Nature 197: 1015-1016, 1963) was employed. Femur bones are isolated from chick embryos on day 11 post-ovulation and cleared of adhering connective tissue by carefully rotating each bone on dry Whatman (I) filter paper under stereomicroscope. Each femur bone is then placed in a drop of PBS before culturing in BGJb medium (pH 7.3) supplemented with penicillin (0.075 mg/ml), streptomycin (0.05 mg/ml), HEPES (2.382 mg/ml) and BSA (1 mg/ml), transferred to BGJb culture medium containing ^45CaCl2 (0.5 μCi/300 μl culture medium) and incubated for 2 h at 37° C. under 5% CO2 in air. Labeled femur bones are then washed with BGJb medium for 24 h at 37° C. under 5% CO2 in air. An aliquot of the medium was withdrawn for the measurement of ^45Ca released into the medium from bone during the first 24 h. […] Radioactivity due to ^45Ca in the spent medium collected at 24, 48 and 96 h of culture and HCl extract at 96 h of culture is quantified by Liquid Scintillation Spectrophotometer in 10 ml of the scintillation fluid (ACS II scintillation cocktail, Amersham Biosciences, UK). […] Bone anti-resorbing activity is expressed as percentage of ^45Ca released into the culture medium and the effect of the agent of invention as percent of the corresponding contra-lateral control or T/C ratio as shown below. […]

[9] = tested on: labeled chick fetal bones in culture; test: Chick fetal bone culture assay, bone forming activity; format: cell-based; conditions: 0.4 μM; T/C close to unity = no bone forming activity
Procedure: A slight modification of the method of Raisz (Nature 197: 1015-1016, 1963) was employed. Femur bones are isolated from chick embryos on day 11 post-ovulation and cleared of adhering connective tissue by carefully rotating each bone on dry Whatman (I) filter paper under stereomicroscope. Each femur bone is then placed in a drop of PBS before culturing in BGJb medium (pH 7.3) supplemented with penicillin (0.075 mg/ml), streptomycin (0.05 mg/ml), HEPES (2.382 mg/ml) and BSA (1 mg/ml), transferred to BGJb culture medium containing ^45CaCl2 (0.5 μCi/300 μl culture medium) and incubated for 2 h at 37° C. under 5% CO2 in air. Labeled femur bones are then washed with BGJb medium for 24 h at 37° C. under 5% CO2 in air. […]
Contralateral femur of each fetus serves as corresponding control. […] Radioactivity due to ^45Ca in the spent medium collected at 24, 48 and 96 h of culture and HCl extract at 96 h of culture is quantified by Liquid Scintillation Spectrophotometer in 10 ml of the scintillation fluid (ACS II scintillation cocktail, Amersham Biosciences, UK). […]
Bone forming activity (cpm)=A×(A/B)^1/2 ×Total radioactivity incorporated into bone during 24 h incubation with ^45Ca
where total radioactivity refers to ^45Ca released into the medium during first 24 hrs incubation+^45Ca released into the medium during 24 to 96 hr of incubation+^45Ca remaining in the femur. […]

C#C[C@]1(O)CC[C@H]2[C@@H]3CCc4cc(O)ccc4[C@H]3CC[C@@]21C [17α-Ethynylestradiol]
Uterine weight gain [1]: 514%

COc1ccc2c(c1)OC1c3ccc(O)cc3OCC21 (centres unmarked) [Compound K095, 3-hydroxy-9-methoxypterocarpans]
Osteoblast cell proliferation (MTT assay) (primary osteoblasts; 10^−5 M): 1.28 ± 0.08 | Osteoblast cell proliferation (MTT assay) (primary osteoblasts; 10^−6 M): 1.47 ± 0.14 | Osteoblast cell proliferation (MTT assay) (primary osteoblasts; 10^−7 M): 1.35 ± 0.16 | Osteoblast cell proliferation (MTT assay) (primary osteoblasts; 10^−8 M): 1.24 ± 0.18 | Osteoblast cell proliferation (MTT assay) (primary osteoblasts; 10^−9 M): 1.14 ± 0.19 | Osteoblast cell proliferation (MTT assay) (primary osteoblasts; 10^−10 M): 1.38 ± 0.18 | osteoblast cell proliferation vs vehicle control (primary osteoblasts; 10^−11 M to 10^−5 M): enhanced osteoblast cell proliferation | Osteoblast cell proliferation (MTT assay) (primary osteoblasts; 10^−11 M): 1.05 ± 0.03 | relative potency in mineralisation on bovine bone slices [2]: most potent | intensity of alizarin red staining (rate of new bone formation) ([2]; osteoblasts on bovine bone slices, alone or in combination): increased intensity of alizarin red staining | alkaline phosphatase activity (osteoblasts [3]; 10^−5 M): 3.28 ± 0.07 | alkaline phosphatase activity (osteoblasts [3]; 10^−6 M): 3.42 ± 0.07 | alkaline phosphatase activity (osteoblasts [3]; 10^−7 M): 3.50 ± 0.07 | alkaline phosphatase activity (osteoblasts [3]; 10^−8 M): 3.35 ± 0.10 | alkaline phosphatase activity (osteoblasts [3]; 10^−9 M): 3.54 ± 0.04 | alkaline phosphatase activity (osteoblasts [3]; 10^−10 M): 3.40 ± 0.07 | expression of alkaline phosphatase vs vehicle control (osteoblasts [3]; 10^−11 M to 10^−5 M): increased expression of alkaline phosphatase | alkaline phosphatase activity (osteoblasts [3]; 10^−11 M): 3.51 ± 0.01 | mineralisation quantified by alizarin extraction method (osteoblast cells): enhanced mineralisation | osteogenic activity (osteoblasts [4]): promising osteogenic activity | activity against Cladosporium cladosporioides [5]: active

C[C@]12CC[C@@H]3c4ccc(O)cc4CC[C@H]3[C@@H]1CC[C@@H]2O [Estradiol-17β]
proliferation [6]: marked increase in proliferation | proliferation [7]: marked increase in proliferation | T/C ratio (PTH-induced resorption of ^45Ca) [8]: 0.37

PTH (aa 1-34): Parathyroid hormone (PTH; aa 1-34), an osteogenic agent, taken as positive control (SVSEIQLMHNLGKHLNSMERVEWLRKKLQDVHNF; Parathyroid hormone; UniProt P01270 32-65, looked up, fragment)
T/C ratio (bone forming activity) [9]: 0.44
